In brackets after ≈: the same amount, converted by molar mass.
How the values were obtained:
[1] = Lethal toxicity to the aquatic invertebrate Ceriodaphnia dubia (acute 48 hr and chronic 7 day); conditions: in vivo
[2] = tested on: L1210 murine leukemia cells; assay: Cytotoxicity to L1210 murine leukemia cells; format: cell-based; conditions: Mus musculus

SMILES	LC50 at 48 h [1] [µg/mL]	LC50 at 168 h [1] [µg/mL]	IC50 [2] [µg/mL]
Nc1ncnc2c([C@@H]3O[C@H](CO[C@H]4O[C@H](CO)[C@@H](O)[C@H](O)[C@H]4O)[C@@H](O)[C@H]3O)c[nH]c12 [Compound 1, 9-deazaadenosine 5'-α-D-glucopyranoside]	0.5 (≈ 1.17 µM)	0.3 (≈ 0.7 µM)	0.01 (≈ 0.0233 µM)
Nc1ncnc2c([C@@H]3O[C@H](CO)[C@@H](O)[C@H]3O)c[nH]c12 [Compound 2, 9-deazaadenosine]	0.3 (≈ 1.13 µM)	0.1 (≈ 0.376 µM)	0.002 (≈ 0.00751 µM)
